Assay results: PubChem BioAssay AID248 (DTP/NCI, 2004)
Where “and” joins values, the source holds several entries; their conditions need not be identical. Equal entries are not always repeated. Toxic doses and inconclusive results are not listed. Cut-off read from the data, not from the text of the source: active = T/C of 150% or more; inactive = T/C below 125%.

Test system: L1210 leukemia ip in BDF1 mice, survival T/C
Assay: NCI In Vivo Anticancer Drug Screen. Data for tumor model L1210 Leukemia (intraperitoneal) in B6D2F1 (BDF1) mice
Conditions: endpoint: mean survival time, higher = longer survival
Outline: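 Read-out is survival time, reported as the treated-group measurement over the vehicle-control measurement.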

[1] = dose: 100.0 mg/kg/injection, schedule: Q04DX002 (ip), vehicle: saline
[2] = dose: 200.0 mg/kg/injection, schedule: Q04DX002 (ip), vehicle: saline
[3] = dose: 400.0 mg/kg/injection, schedule: Q04DX002 (ip), vehicle: saline
[4] = dose: 100.0 mg/kg/injection, schedule: Q01DX009 (ip), vehicle: saline with Tween-80
[5] = dose: 100.0 mg/kg/injection, schedule: Q04DX003 (ip), vehicle: saline with Tween-80
[6] = dose: 200.0 mg/kg/injection, schedule: Q01DX009 (ip), vehicle: saline with Tween-80
[7] = dose: 400.0 mg/kg/injection, schedule: Q01DX009 (ip), vehicle: saline with Tween-80
[8] = dose: 50.0 mg/kg/injection, schedule: Q01DX009 (ip), vehicle: Klucel (hydroxypropylcellulose) (HPC)
[9] = dose: 100.0 mg/kg/injection, schedule: Q01DX009 (ip), vehicle: Klucel (hydroxypropylcellulose) (HPC)
[10] = dose: 100.0 mg/kg/injection, schedule: Q04DX003 (ip), vehicle: Klucel (hydroxypropylcellulose) (HPC)
[11] = dose: 200.0 mg/kg/injection, schedule: Q04DX003 (ip), vehicle: Klucel (hydroxypropylcellulose) (HPC)
[12] = dose: 400.0 mg/kg/injection, schedule: Q04DX003 (ip), vehicle: Klucel (hydroxypropylcellulose) (HPC)
[13] = dose: 100.0 mg/kg/injection, schedule: Q01DX001 (ip), vehicle: saline
[14] = dose: 50.0 mg/kg/injection, schedule: Q04DX003 (ip), vehicle: saline
[15] = dose: 100.0 mg/kg/injection, schedule: Q04DX003 (ip), vehicle: saline
[16] = dose: 100.0 mg/kg/injection, schedule: Q01DX009 (ip), vehicle: saline
[17] = dose: 200.0 mg/kg/injection, schedule: Q01DX001 (ip), vehicle: saline
[18] = dose: 200.0 mg/kg/injection, schedule: Q01DX009 (ip), vehicle: saline
[19] = dose: 400.0 mg/kg/injection, schedule: Q01DX001 (ip), vehicle: saline
[20] = dose: 100.0 mg/kg/injection, schedule: Q01DX001 (ip), vehicle: Klucel (hydroxypropylcellulose) (HPC)
[21] = dose: 200.0 mg/kg/injection, schedule: Q01DX001 (ip), vehicle: Klucel (hydroxypropylcellulose) (HPC)
[22] = dose: 400.0 mg/kg/injection, schedule: Q01DX001 (ip), vehicle: Klucel (hydroxypropylcellulose) (HPC)
[23] = dose: 200.0 mg/kg/injection, schedule: Q04DX003 (ip), vehicle: saline
[24] = dose: 100.0 mg/kg/injection, schedule: Q04DX002 (ip), vehicle: Klucel (hydroxypropylcellulose) (HPC)
[25] = dose: 200.0 mg/kg/injection, schedule: Q04DX002 (ip), vehicle: Klucel (hydroxypropylcellulose) (HPC)
[26] = dose: 400.0 mg/kg/injection, schedule: Q04DX002 (ip), vehicle: Klucel (hydroxypropylcellulose) (HPC)

Measured: T/C

O=C(O)CC[n+]1c(/C=C/c2cc(Br)c(O)c(Br)c2)sc2ccccc21
inactive: dose: 100.0 mg/kg/injection, schedule: Q04DX003 (ip), vehicle: saline sonified 102 % of control | dose: 200.0 mg/kg/injection, schedule: Q04DX003 (ip), vehicle: saline sonified 99 % of control

CCOCCOCCOC(C)Oc1ccc(C(C)C)cc1 (stereo unspecified)
inactive: [1] 93 % of control | [2] 104 % of control | [3] 101 % of control

O=C(COc1ccc(Cl)cc1Cl)NC(O)C(Cl)(Cl)Cl (stereo unspecified)
inactive: [4] 94 % of control | [5] 100 % of control | [6] 87 % of control | dose: 200.0 mg/kg/injection, schedule: Q04DX003 (ip), vehicle: saline with Tween-80 97 % of control | [7] 89 % of control | dose: 400.0 mg/kg/injection, schedule: Q04DX003 (ip), vehicle: saline with Tween-80 94 % of control

CCCC(C)c1ccccc1O (stereo unspecified)
inactive: [5] 95 % of control

C=CCOc1cc(C)cc(C)c1C
inactive: [8] 95 % of control | dose: 85.0 mg/kg/injection, schedule: Q04DX003 (ip), vehicle: Klucel (hydroxypropylcellulose) (HPC) 90 % of control | [9] 94 % of control | [10] 112 % of control | dose: 135.0 mg/kg/injection, schedule: Q04DX003 (ip), vehicle: Klucel (hydroxypropylcellulose) (HPC) 90 % of control | dose: 200.0 mg/kg/injection, schedule: Q01DX009 (ip), vehicle: Klucel (hydroxypropylcellulose) (HPC) 89 % of control | [11] 88 % of control | dose: 300.0 mg/kg/injection, schedule: Q04DX003 (ip), vehicle: Klucel (hydroxypropylcellulose) (HPC) 90 % of control | [12] 120 % of control

O=CC(CO)CC(C=O)n1cnc2c(=O)[nH]cnc21 (stereo unspecified)
inactive: [13] 114 % of control

Cc1cccc(C[As](C)(=O)O)c1
inactive: dose: 25.0 mg/kg/injection, schedule: Q04DX003 (ip), vehicle: saline 94 % of control | [14] 98 % of control | [15] 100 % of control and 103 % of control

O=Cc1ccc(OC(=O)Nc2ccccc2F)cc1
inactive: [13] 96 % of control | [16] 98 % of control and 101 % of control | [1] 103 % of control and 107 % of control | [17] 99 % of control | [18] 106 % of control and 112 % of control | [2] 100 % of control and 104 % of control | [19] 92 % of control | dose: 400.0 mg/kg/injection, schedule: Q01DX009 (ip), vehicle: saline 96 % of control | [3] 93 % of control and 109 % of control

CC(=O)N1CCN(C(C)=O)C1=S
inactive: [20] 96 % of control | [21] 95 % of control | [22] 98 % of control

[O-]/[N+](C/[N+]([O-])=N\OCCCl)=N\OCCCl
inactive: [20] 91 % of control | [21] 91 % of control | [22] 91 % of control

COc1ccc(C)cc1NC(=O)OCCOc1ccc(Cl)c(C)c1
inactive: dose: 50.0 mg/kg/injection, schedule: Q01DX009 (ip), vehicle: saline with Tween-80 93 % of control | [4] 90 % of control | [6] 93 % of control

CCCCC(CC)C(=O)C(CCN(C)C)(c1ccccc1)c1ccccn1 (stereo unspecified)
inactive: dose: 44.0 mg/kg/injection, schedule: Q01DX Z (ip), vehicle: methylcellulose (MC) 101 % of control | dose: 66.0 mg/kg/injection, schedule: Q01DX Z (ip), vehicle: methylcellulose (MC) 97 % of control | dose: 100.0 mg/kg/injection, schedule: Q01DX Z (ip), vehicle: methylcellulose (MC) 96 % of control

Cc1noc2ncnc(N)c12
inactive: dose: 25.0 mg/kg/injection, schedule: Q01DX009 (ip), vehicle: Klucel (hydroxypropylcellulose) (HPC) 102 % of control | [8] 102 % of control | [9] 95 % of control

COc1ccc(NC(=O)CCc2ccc(N3C(N)=NC(N)=NC3(C)C)cc2)cc1S(=O)(=O)F
inactive: dose: 50.0 mg/kg/injection, schedule: Q01DX001 (ip), vehicle: Klucel (hydroxypropylcellulose) (HPC) 95 % of control | [20] 106 % of control | [21] 98 % of control

CC(C)N(C(=O)Nc1cccc(C(F)(F)F)c1)C1CCCCC1
inactive: dose: 100.0 mg/kg/injection, schedule: Q01DX009 (ip), vehicle: gum acacia 90 % of control | dose: 200.0 mg/kg/injection, schedule: Q01DX009 (ip), vehicle: gum acacia 98 % of control | dose: 400.0 mg/kg/injection, schedule: Q01DX009 (ip), vehicle: gum acacia 88 % of control

NOCCCCON
inactive: dose: 25.0 mg/kg/injection, schedule: Q01DX009 (ip), vehicle: saline 98 % of control and 103 % of control | dose: 25.0 mg/kg/injection, schedule: Q04DX002 (ip), vehicle: saline 93 % of control and 97 % of control | dose: 50.0 mg/kg/injection, schedule: Q01DX009 (ip), vehicle: saline 95 % of control and 97 % of control | dose: 50.0 mg/kg/injection, schedule: Q04DX002 (ip), vehicle: saline 96 % of control and 101 % of control | [14] 98 % of control | [13] 101 % of control | [16] 100 % of control [middle of 4 runs] | [1] 93 % of control and 94 % of control | [15] 95 % of control | [17] 102 % of control | [18] 95 % of control and 102 % of control | [2] 96 % of control and 105 % of control | [23] 93 % of control | [19] 104 % of control | [3] 98 % of control and 110 % of control

CN(C)C(c1ccccc1)c1ccccc1
inactive: dose: 50.0 mg/kg/injection, schedule: Q01DX001 (ip), vehicle: saline 96 % of control | [13] 94 % of control | [17] 94 % of control | [19] 94 % of control

COc1cc(C(C)=O)ccc1O
inactive: [24] 99 % of control | [25] 89 % of control | [26] 89 % of control

O=C(O)c1ccc(C(=O)O)o1
inactive: [24] 95 % of control | [25] 91 % of control | [26] 91 % of control

O=C1/C(=C\C=C\c2ccccc2)CCCC/C1=C\C=C\c1ccccc1
inactive: dose: 50.0 mg/kg/injection, schedule: Q01DX001 (ip), vehicle: carboxymethylcellulose (CMC) 97 % of control | dose: 100.0 mg/kg/injection, schedule: Q01DX001 (ip), vehicle: carboxymethylcellulose (CMC) 90 % of control | dose: 200.0 mg/kg/injection, schedule: Q01DX001 (ip), vehicle: carboxymethylcellulose (CMC) 97 % of control | dose: 400.0 mg/kg/injection, schedule: Q01DX001 (ip), vehicle: carboxymethylcellulose (CMC) 92 % of control

CC(=O)N(CCC#N)CCC#N
inactive: [15] 95 % of control | [23] 96 % of control | dose: 400.0 mg/kg/injection, schedule: Q04DX003 (ip), vehicle: saline 93 % of control

O=C(Oc1ccccc1)c1cc(Br)c2ccccc2c1O
inactive: [4] 96 % of control | [10] 89 % of control | [6] 95 % of control | [11] 97 % of control | [7] 93 % of control | [12] 87 % of control

CCCCCC(C)NC(=O)NCCCl (stereo unspecified)
inactive: [24] 89 % of control | [25] 92 % of control | [26] 87 % of control

CN(N=O)C(=O)NCCOC(=O)N(C)N=O
inactive: dose: 6.25 mg/kg/injection, schedule: Q01DX Z (ip), vehicle: carboxymethylcellulose (CMC) 124 % of control | dose: 12.5 mg/kg/injection, schedule: Q01DX Z (ip), vehicle: carboxymethylcellulose (CMC) 124 % of control

CCC12CCCN3C(=O)CC(C(=O)CC1)C32 (stereo unspecified)
inactive: [15] 107 % of control

CC(=O)OCC1OC(N2C(=O)/C(=C/c3ccc4ccccc4c3)SC2=S)C(OC(C)=O)C(OC(C)=O)C1OC(C)=O (stereo unspecified)
inactive: dose: 25.0 mg/kg/injection, schedule: Q01DX005 (ip), vehicle: other 92 % of control | dose: 50.0 mg/kg/injection, schedule: Q01DX005 (ip), vehicle: other 97 % of control
